Experimental findings from patent US9181230B2, “Morpholine compounds and uses thereof” (Hoffmann-La Roche Inc., priority 2013, dated 2015) are described below.

One assay deals with mouse TAAR1 (Mus musculus (Mouse), UniProt Q923Y8). The assay is described as follows: Radioligand binding assay on mouse TAAR1. Particulars: for Ki: mouse TAAR1, membranes of HEK-293 cells, first value of the cell pair mouse/rat. As to the method:
(§1) For the construction of expression plasmids the coding sequences of human, rat and mouse TAAR 1 were amplified from genomic DNA essentially as described by Lindemann et al.. The Expand High Fidelity PCR System (Roche Diagnostics) was used with 1.5 mM Mg^2+ and purified PCR products were cloned into pCR2.1-TOPO cloning vector (Invitrogen) following the instructions of the manufacturer. PCR products were subcloned into the pIRESneo2 vector (BD Clontech, Palo Alto, Calif.), and expression vectors were sequence verified before introduction in cell lines.
(§2) HEK293 cells (ATCC # CRL-1573) were cultured essentially as described by Lindemann et al. (2005). For the generation of stably transfected cell lines HEK293 cells were transfected with the pIRESneo2 expression plasmids containing the TAAR coding sequences (described above) with Lipofectamine 2000 (Invitrogen) according to the instructions of the manufacturer, and 24 hrs post transfection the culture medium was supplemented with 1 mg/ml G418 (Sigma, Buchs, Switzerland). After a culture period of about 10 d clones were isolated, expanded and tested for responsiveness to trace amines (all compounds purchased from Sigma) with the cAMP Biotrak Enzyme immunoassay (EIA) System (Amersham) following the non-acetylation EIA procedure provided by the manufacturer.
(A) Radioligand Binding Assay on Mouse TAAR1
(§3) Membrane Preparation and Radioligand Binding.
(§4) HEK-293 cells stably expressing mouse TAAR1 were maintained at 37° C. and 5% CO2 in DMEM high glucose medium, containing fetal calf serum (10%, heat inactivated for 30 min at 56° C.), penicillin/streptomycin (1%), and 375 μg/ml geneticin (Gibco). Cells were released from culture flasks using trypsin/EDTA, harvested, washed twice with ice-cold PBS (without Ca^2+ and Mg^2+), pelleted at 1,000 rpm for 5 min at 4° C., frozen and stored at −80° C. Frozen pellets were suspended in 20 ml HEPES-NaOH (20 mM, pH 7.4) containing 10 mM EDTA and homogenized with a Polytron (PT 6000, Kinematica) at 14,000 rpm for 20 s. The homogenate was centrifuged at 48,000×g for 30 min at 4° C. Subsequently, the supernatant was removed and discarded, and the pellet resuspended in 20 ml HEPES-NaOH (20 mM, pH 7.4) containing 0.1 mM EDTA using the Polytron (20 s at 14,000 rpm). This procedure was repeated and the final pellet resuspended in HEPES-NaOH containing 0.1 mM EDTA and homogenized using the Polytron. Typically, aliquots of 2 ml membrane portions were stored at −80° C. With each new membrane batch the dissociation constant (Kd) was determined via a saturation curve. […] Nonspecific binding was defined as the amount of ^3[H]-(S)-4-[(ethyl-phenyl-amino)-methyl]-4,5-dihydro-oxazol-2-ylamine bound in the presence of 10 μM unlabeled ligand. All compounds were tested at a broad range of concentrations (10 pM to 10 μM) in duplicates. […] The 96 deep well plates were incubated for 1 hr at 4° C. Incubations were terminated by rapid filtration through Unifilter-96 plates (Packard Instrument Company) and glass filters GF/C (Perkin Elmer) presoaked for 1 hr in polyethylenimine (0.3%) and washed 3 times with 1 ml of cold binding buffer. After addition of 45 μl of Microscint 40 (PerkinElmer) the Unifilter-96 plate was sealed and after 1 hr the ratioactivity counted using a TopCount Microplate Scintillation Counter (Packard Instrument Company).

The next assay has as its target rat TAAR1 (Rattus norvegicus (Rat), UniProt Q923Y9). The assay is described as follows: Radioligand binding assay on rat TAAR1. Particulars: for Ki: rat TAAR1, membranes of HEK-293 cells, second value of the cell pair mouse/rat. As to the method: as §1, §2
(B) Radioligand Binding Assay on Rat TAAR1
as §3
as §4, with “rat” for “mouse”

SMILES strings stand for the structures. Counter-ions that a name gives are not always drawn.

Chain of mouse TAAR1 (Q923Y8 whole entry): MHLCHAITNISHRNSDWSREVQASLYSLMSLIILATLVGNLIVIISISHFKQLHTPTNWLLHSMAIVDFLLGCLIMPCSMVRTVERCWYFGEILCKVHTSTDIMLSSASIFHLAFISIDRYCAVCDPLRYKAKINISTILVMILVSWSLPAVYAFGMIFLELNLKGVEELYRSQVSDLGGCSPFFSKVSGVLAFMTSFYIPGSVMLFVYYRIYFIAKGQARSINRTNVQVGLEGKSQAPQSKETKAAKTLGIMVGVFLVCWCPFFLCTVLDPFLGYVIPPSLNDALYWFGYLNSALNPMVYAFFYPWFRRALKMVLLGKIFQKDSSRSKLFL
Chain of rat TAAR1 (Q923Y9 whole entry): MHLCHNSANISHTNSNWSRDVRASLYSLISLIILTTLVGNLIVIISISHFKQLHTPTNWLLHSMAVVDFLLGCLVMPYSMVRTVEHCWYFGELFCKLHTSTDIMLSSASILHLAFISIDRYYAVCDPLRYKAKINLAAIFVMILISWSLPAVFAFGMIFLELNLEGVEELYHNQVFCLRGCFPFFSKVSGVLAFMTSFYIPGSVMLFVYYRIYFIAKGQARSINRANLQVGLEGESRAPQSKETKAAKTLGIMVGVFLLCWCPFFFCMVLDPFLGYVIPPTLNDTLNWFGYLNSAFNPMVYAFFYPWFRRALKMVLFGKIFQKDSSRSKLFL

For `FC(F)(F)c1cnc2[nH]c3ccc([C@@H]4CNCCO4)cc3c2c1` [Example 48, (R)-2-(3-(Trifluoromethyl)-9H-pyrido[2,3-b]indol-6-yl)morpholine hydrochloride], the Ki amounted to 0.0081 µM at mouse TAAR1 (hydrochloride) and 0.0639 µM on rat TAAR1 (hydrochloride).

`FC(F)(F)c1cnc2[nH]c3ccc([C@@H]4CNCCO4)cc3c2c1` [Example 50, (R)-2-(3-(Trifluoromethyl)-9H-pyrido[2,3-b]indol-6-yl)morpholine hydrochloride]: the Ki on mouse TAAR1 (hydrochloride) amounted to 0.0082 µM; at rat TAAR1 (hydrochloride), 0.0303 µM.

As for `FC(F)(F)c1ccc(-c2nc3ccc([C@@H]4CNCCO4)cc3o2)cn1` [Example 53, (R)-6-(Morpholin-2-yl)-2-(6-(trifluoromethyl)pyridin-3-yl)benzo[d]oxazole hydrochloride], the Ki was determined as 0.0463 µM on mouse TAAR1 and 0.226 µM on rat TAAR1.

In the case of `CCN(C[C@H]1COC(N)=N1)c1ccccc1` [^3[H]-(S)-4-[(ethyl-phenyl-amino)-methyl]-4,5-dihydro-oxazol-2-ylamine, reference compound], the dissociation constant (Kd) on mouse TAAR1 (mouse TAAR1, saturation curve, usual value per membrane batch, read-out: dissociation constant (Kd) of the radioligand) is roughly 0.0007 µM; on rat TAAR1 (rat TAAR1, saturation curve, usual value per membrane batch, read-out: dissociation constant (Kd) of the radioligand), roughly 0.0023 µM.

A word on the Ki: it is a dissociation constant, usually derived from enzyme kinetics or from competition with a known ligand. A high value points to weaker binding. One may read the Kd as the equilibrium constant for the complex coming apart.
